Tests used:
Format in all cases: cell-based, human
[1] = tested on: A375 melanoma cells; assay: Neutral red uptake (NRU) viability assay, A375; details: Homo sapiens, A-375, 72 h, mean ± SD of three experiments
Experimental: Melanoma human cancer cell line (A375 and MDA-MB-435) were obtained from ATCC. The NIH-3T3 cell line was generously gifted by the ANSM (French National Agency for Medicines and Health Products Safety, Vendargues, France). Cells were cultured in Dulbecco’s Modified Eagle Medium (DMEM, Sigma Aldrich) supplemented with 10% heat-inactivated foetal calf serum (FCS, Gibco), 2 mM glutamax (Gibco), 100 IU/mL penicillin G sodium (Sigma Aldrich), 100 lU/mL streptomycin sulphate (Sigma Aldrich). The cells were allowed to grow at 37 °C in a fully humidified atmosphere containing 5% CO2.
A viability assay was used to evaluate the cytotoxic activity on A375 and MDA-MB-435 melanoma cells as previously described. According to OCDE/ICCVAM guidance n°129, NRU assay was also used to evaluate the toxicity on the non-cancerous NIH-3T3 cells. Cells were seeded at a final concentration of 2000 cells/well (A375), 3000 cells/well (NIH-3T3) or 7500 cells/well (MDA-MB-435) in 96-well microtiter plates for 24 h. Then, cells were exposed to two negative controls (1% DMSO in culture medium (vehicle) and culture medium alone), or to different compounds freshly dissolved in DMSO, in a range of concentration from 0.01 to 40 µM (six wells per concentration). After 72 h of incubation, cells were stained with new medium containing 50 µg/mL of neutral red (3-amino-7-dimethylamino-2-methylphenazine hydrochloride, Sigma Aldrich) at 37 °C for 2 h. The neutral red medium solution was then removed and the wells were washed with PBS. Finally, 100 µL of solution containing ethanol, acetic acid and water (50/1/49 v/v/v respectively) were added into the wells and the absorbance was measured at 540 nm using the microplate reader 352 Multiscan MS (Labsystems). Cell survival rates were normalised to the absorbance values of untreated control cells. IC50 was obtained using a logistic regression model on Graphpad Prism 5.0 software. Results are given as the mean ± standard deviation (SD) of three independent experiments. Statistical analysis was performed using the Student’s t-test.

[2] = tested on: MDA-MB-435 cells; assay: Immunofluorescent staining for actin localisation (confocal microscopy); details: 5 µM, 20 h
Experimental: To evaluate the effect of compound treatment on cell morphology and stress actin fibres, an immunofluorescence imaging of cells was performed as previously described. MDA-MB-435 cells were seeded on cover slips in petri dishes and allowed to grow for 24 h. After cell growth, cells were treated with the vehicule (control cells) or with JMV5038, compound 5 or 8 at 5 µM for 20 h. Then cells were fixed using Antigenfix for 20 min and permeabilized using 0.2% Triton X-100 for 4 min at room temperature. Actin was stained using a primary human anti-actin antibody (made from mouse) and a secondary Alexa Fluor 568-conjugated goat anti-mouse antibody. Both of them were incubated 1 h at room temperature. Nuclei were counter-stained using Hoechst 33342. Representative images were obtained using a Zeiss LSM 780 inverted confocal microscopy. Confocal fluorescence microscopy was performed on fixed cells under a 543 nm wavelength excitation for AlexaFluor568, and 405 nm for nuclei, and visualised at 620 nm (red) and 450 nm (blue) respectively.
In our previous study, we reported that JMV5038 led to changes in the cell morphology, concomitant with a disruption of the actin network. Morphological changes in MDA-MB-435 cells induced by compounds 5 or 8 were investigated and compared to those induced by JMV5038. For this purpose, fixed and actin immunostained MDA-MB-435 cells were imaged by confocal microscopy (Figure 6). Control cells treated with DMSO (20 h, 5 µM concentration) were spread and the tensile forces of actin stress fibres stretched the cell-adhesive phenotype.

[3] = tested on: NCI-60 cancer cell line panel; assay: NCI-60 SRB assay, whole panel; details: 10 µM, 48 h
Experimental: (§1) Primary anticancer assay was performed on a panel of 60 human cancer cell lines derived from nine neoplastic diseases, in accordance with the protocol of the Drug Evaluation Branch, National Cancer Institute, Bethesda, Maryland, USA[22]. Cells were incubated with tested compounds at 10 µM for 48 h. The growth percentage was evaluated spectrophotometrically using a protein binding dye, SRB. Results for each tested compound were reported as the percent of growth of treated cells when compared to untreated control cells.
(§2) To better compare the activity profile of these two series of compounds, compounds 5 and 8 were selected and then evaluated towards a panel of sixty cancer cell lines corresponding to nine different cancer types, i.e. leukaemia, melanoma, as well as lung, colon, central nervous system, ovarian, renal, prostate and breast cancers (NCI evaluation). Indeed, it is now well established that the growth inhibitory patterns of anticancer drugs against the NCI-60 cell line panel correlated well with their modes of action. For example, compounds that bind to tubulin have similar growth inhibition patterns regardless of which site on tubulin they bind[30]. […] Compounds were tested using the sulforhodamine B (SRB) assay that provides a direct cell density index. The amount of dye incorporated by the cells increases with the increase of the total protein biomass. Cells were incubated for 48 h with compounds at 10 µM concentration, then cell growth was evaluated spectrophotometrically and presented as the percent of untreated control cells. Values of the most sensitive cell lines were compared to those obtained with JMV5038 (Figure 4, for all data see SI).

[4] = tested on: NCI-H522; assay: NCI-60 SRB assay, NCI-H522 (NSCLC); details: 10 µM, 48 h; for G%: growth vs untreated control
Experimental: as §1, §2

[5] = tested on: KM12; assay: NCI-60 SRB assay, KM12 (Colon Cancer); details: 10 µM, 48 h; for G%: growth vs untreated control
Experimental: as §1, §2

[6] = tested on: SF-295; assay: NCI-60 SRB assay, SF-295 (CNS Cancer); details: 10 µM, 48 h; for G%: growth vs untreated control
Experimental: as §1, §2

[7] = tested on: SNB-19; assay: NCI-60 SRB assay, SNB-19 (CNS Cancer); details: 10 µM, 48 h; for G%: growth vs untreated control
Experimental: as §1, §2

[8] = tested on: M14; assay: NCI-60 SRB assay, M14 (Melanoma); details: 10 µM, 48 h; for G%: growth vs untreated control
Experimental: as §1, §2

[9] = tested on: MDA-MB-435; assay: NCI-60 SRB assay, MDA-MB-435 (Melanoma); details: 48 h; for Mean G% - G% / G%: MDA-MB-435, 10 µM, SRB; for G%: growth vs untreated control;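 on Mean G% - G%: mean growth across the NCI-60 panel minus this line's growth with positive meaning more sensitive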
Experimental: as §1, §2

[10] = tested on: OVCAR-3; assay: NCI-60 SRB assay, OVCAR-3 (Ovarian Cancer); details: 10 µM, 48 h; for G%: growth vs untreated control;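 on Mean G% - G%: mean growth across the NCI-60 panel minus this line's growth with positive meaning more sensitive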
Experimental: as §1, §2

[11] = tested on: ACHN; assay: NCI-60 SRB assay, ACHN (Renal Cancer); details: 10 µM, 48 h; for G%: growth vs untreated control
Experimental: as §1, §2

[12] = tested on: TK-10; assay: NCI-60 SRB assay, TK-10 (Renal Cancer); details: 10 µM, 48 h; for G%: growth vs untreated control;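 on Mean G% - G%: mean growth across the NCI-60 panel minus this line's growth with positive meaning more sensitive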
Experimental: as §1, §2

[13] = tested on: UO-31; assay: NCI-60 SRB assay, UO-31 (Renal Cancer); details: 10 µM, 48 h; for G%: growth vs untreated control
Experimental: as §1, §2

[14] = tested on: HS 578T; assay: NCI-60 SRB assay, HS 578T (Breast Cancer); details: 10 µM, 48 h; for G%: growth vs untreated control
Experimental: as §1, §2

[15] = tested on: T-47D; assay: NCI-60 SRB assay, T-47D (Breast Cancer); details: 10 µM, 48 h; for G%: growth vs untreated control
Experimental: as §1, §2

Compound | IC50 [1] | Mean G% (mean growth over the panel) [3] | Mean G% - G% [4] | G% [4] | Mean G% - G% [5] | G% [5] | Mean G% - G% [6] | G% [6] | Mean G% - G% [7] | G% [7] | Mean G% - G% [8] | G% [8] | Mean G% - G% [9] | G% [9] | Mean G% - G% [10] | G% [10] | Mean G% - G% [11] | G% [11] | Mean G% - G% [12] | G% [12] | other results
C[C@@H]1NC(c2ccc(N=[N+]=[N-])cc2)=Nc2nc3ccccn3c2C1=O [Compound 5, (4S)-4-methyl-2-(4-azidophenyl)-3,4-dihydro-5H-pyrido[1’,2’:1,2]imidazo[4,5-d][1,3]diazepin-5-one] | 7.13 ± 0.51 µM | 85,26% | 13,32% | 71,94% | 27,28% | 57,98% | -8,18% | 93,44% | -4,44% | 89,70% | 3,28% | 81,98% | 72,64% | 12,62% | -12,28% | 97,54% | 0,49% | 84,77% | -48,01% | 133,27% | morphological changes / actin network [2]: disorganisation of the actin cytoskeleton; inhibition at 10 µM ([9]; Homo sapiens, MDA-MB-435, NCI-60 SRB, read-out: growth inhibition percentage): 87%; Mean G% - G% [13]: 15,67%; G% [13]: 69,59%; Mean G% - G% [14]: -10,95%; G% [14]: 96,21%; Mean G% - G% [15]: 8,29%; G% [15]: 76,97%
[N-]=[N+]=NCCCC[C@@H]1NC(c2ccc(Br)cc2)=Nc2nc3ccccn3c2C1=O [Compound 16, (4S)-4-(4-azidobutyl)-2-(4-bromophenyl)-3,4-dihydro-5H-pyrido[1’,2’:1,2]imidazo[4,5-d][1,3]diazepin-5-one] | 3.68 ± 0.63 µM | 91.77% | 7,01% | 84,76% | 10,11% | 81,66% | -4,02% | 95,79% | -3,35% | 95,12% | -14,11% | 105,88% | -13,77% | 105,54% | -11,51% | 103,28% | 3,57% | 88,20% | -38,14% | 129,91% | Mean G% - G% [13]: 27,99%; G% [13]: 63,78%; Mean G% - G% [14]: -1,51%; G% [14]: 93,28%; Mean G% - G% [15]: 10,17%; G% [15]: 81,60%
C[C@@H]1NC(c2csc3ccccc23)=Nc2nc3ccccn3c2C1=O [Compound 8, (4S)-4-methyl-2-benzothiophen-3-yl-3,4-dihydro-5H-pyrido[1’,2’:1,2]imidazo[4,5-d][1,3]diazepin-5-one] | 7.97 ± 0.65 µM | 74.87% | -20,45% | 95,32% | 4,90% | 69,97% | -8,66% | 83,53% | -4,95% | 79,82% | -16,75% | 91,62% | -0,17% | 75,04% | -5,26% | 80,13% | -4,72% | 79,59% | -36,86% | 111,73% | morphological changes / actin network [2]: disorganisation of the actin cytoskeleton; Mean G% - G% [13]: 22,87%; G% [13]: 52,00%; Mean G% - G% [14]: 15,40%; G% [14]: 59,47%; Mean G% - G% [15]: 28,96%; G% [15]: 45,91%
C[C@@H]1NC(c2ccc(Br)cc2)=Nc2nc3ccccn3c2C1=O [JMV5038] | 2.1 ± 0.42 µM | 54,24% | 19,43% | 34,81% | 24,69% | 29,55% | 13,36% | 40,88% | -28,38% | 82,62% | 22,48% | 31,76% | 67,26% | -13,02% | 36,95% | 17,29% | -14,97% | 69,21% | -55,42% | 109,66% | morphological changes / actin network [2]: disorganisation of the actin cytoskeleton; Mean G% - G% [13]: -7,77%; G% [13]: 62,01%; Mean G% - G% [14]: -17,10%; G% [14]: 71,34%; Mean G% - G% [15]: -12,99%; G% [15]: 67,23%
